Test results: patent US10632125B2, “MTH1 inhibitors for treatment of inflammatory and autoimmune conditions” (THOMAS HELLEDAYS STIFTELSE FÖR MEDICINSK FORSKNING, priority 2014, dated 2020)

Biological target: MTH1 (Homo sapiens, UniProt P36639)
Experiment: MTH1 enzymatic assay (malachite green, coupled to pyrophosphatase)
Type: biochemical
Settings: not given
Description: MTH1 catalyzes the hydrolysis of dGTP to dGMP and PPi. By coupling the reaction to pyrophosphatase added in excess PPi is converted to Pi that can be detected by using the malachite green assay reagent. […] 96-well method: Briefly, the compound to be analyzed is diluted in DMSO in a 1:3 dilution series generating 12 different compound concentrations giving a final DMSO concentration of 1% in the assay well. MTH1 diluted in assay buffer (100 mM Tris-acetate, 40 mM NaCl, 10 mM magnesium acetate, 1 mM DTT and 0.005% Tween 20) fortified with E. coli pyrophosphatase (0.2 U/ml) is added to a final concentration of 6 nM. dGTP diluted in assay buffer is added to a final concentration of 100 μM. The reaction mixture is incubated for 15 minutes at 22° C. To 100 μl reaction mixture, 25 μl Malachite green assay regent (0.095% Malachite green in 17% H2SO4, 1.5% Ammonium molybdate, 0.17% Tween 20) is added, followed by incubation with shaking for 15 minutes at 22° C. The absorbance of the assay plate is read at 630 nm using a Hidex Sense Multilabel plate reader. The IC50 value is determined by fitting a dose response curve to the data points using nonlinear regression analysis and the equation Y=Bottom+(Top-Bottom)/(1+10^((Log IC50−X)*HillSlope)), where Y is the read absorbance at 630 nm and X is log [compound].
384-Well Method: The compounds to be tested are nano-dispensed, in 11 concentrations, directly in assay plates, with a final DMSO concentration <1%. The protocol and the reaction mixture are the same as for the 96-well assay, with a total reaction volume of 50 μl/well to which 10 μl of Malachite green reagent is added. All additions to the assay plates are made with multidrop.

IC50 [nM] | SMILES
< 200 | CNc1cc(-c2cccc(Cl)c2Cl)nc(N)n1 [Example 38, 6-(2,3-dichlorophenyl)-4-N-methylpyrimidine-2,4-diamine]

Same assay, conditions: dGTP 100 μM, MTH1 6 nM; 96- or 384-well format; read-out: IC50

SMILES | IC50 [nM]
CNc1cc(-c2ccc(C(C)(C)C)cc2)nc(N)n1 [Example 69, 6-(4-tert-butylphenyl)-4-N-methylpyrimidine-2,4-diamine] | < 200
CNc1cc(-c2ccc(C)cc2)nc(N)n1 [Example 70, 4-N-methyl-6-(4-methylphenyl)pyrimidine-2,4-diamine] | < 200
CNc1cc(-c2ccc(Cl)cc2Cl)nc(N)n1 [Example 71, 6-(2,4-dichlorophenyl)-4-N-methylpyrimidine-2,4-diamine] | < 200
CNc1cc(-c2ccc(F)cc2F)nc(N)n1 [Example 75, 6-(2,4-difluorophenyl)-4-N-methylpyrimidine-2,4-diamine] | < 200
CNc1cc(-c2cc(F)ccc2OC)nc(N)n1 [Example 76, 6-(5-fluoro-2-methoxyphenyl)-4-N-methylpyrimidine-2,4-diamine] | < 200
CNc1cc(-c2ccc(OC)c(F)c2)nc(N)n1 [Example 82, 6-(3-fluoro-4-methoxyphenyl)-4-N-methylpyrimidine-2,4-diamine] | < 200
CNc1cc(-c2ccc(F)c(F)c2)nc(N)n1 [Example 83, 6-(3,4-difluorophenyl)-4-N-methylpyrimidine-2,4-diamine] | < 200
CNc1cc(-c2ccc(OC(C)C)cc2)nc(N)n1 [Example 84, 4-N-methyl-6-[4-(propan-2-yloxy)phenyl]pyrimidine-2,4-diamine] | < 200
CNc1cc(-c2cccc(C)c2C)nc(N)n1 [Example 86, 6-(2,3-dimethylphenyl)-4-N-methylpyrimidine-2,4-diamine] | < 200
CNc1cc(-c2ccc(Cl)c(F)c2)nc(N)n1 [Example 88, 6-(4-chloro-3-fluorophenyl)-4-N-methylpyrimidine-2,4-diamine] | < 200
CNc1cc(-c2cccc(C(F)(F)F)c2Cl)nc(N)n1 [Example 91, 6-[2-chloro-3-(trifluoromethyl)phenyl]-4-N-methylpyrimidine-2,4-diamine] | < 200
CNc1cc(-c2cccc(F)c2Cl)nc(N)n1 [Example 92, 6-(2-chloro-3-fluorophenyl)-4-N-methylpyrimidine-2,4-diamine] | < 200
CNc1cc(-c2cccc(Cl)c2C)nc(N)n1 [Example 94, 6-(3-chloro-2-methylphenyl)-4-N-methylpyrimidine-2,4-diamine] | < 200
CNc1cc(-c2cc(OC)cc(Cl)c2Cl)nc(N)n1 [Example 99, 6-(2,3-dichloro-5-methoxyphenyl)-4-N-methylpyrimidine-2,4-diamine] | < 200
CNc1cc(-c2ccc(O)cc2)nc(N)n1 [Example 100, 4-[2-amino-6-(methylamino)pyrimidin-4-yl]phenol] | < 200
CNc1cc(-c2ccc(C(=O)N3CCOCC3)c(Cl)c2)nc(N)n1 [Example 104, 6-[3-chloro-4-(morpholine-4-carbonyl)phenyl]-4-N-methylpyrimidine-2,4-diamine] | < 200
CNc1cc(-c2ccc(/C=C/C(=O)OC)cc2)nc(N)n1 [Example 106, methyl (2E)-3-{4-[2-amino-6-(methylamino)pyrimidin-4-yl]phenyl}prop-2-enoate] | < 200
CNc1cc(-c2cccc(/C=C/C(=O)OC)c2)nc(N)n1 [Example 107, methyl (2E)-3-{3-[2-amino-6-(methylamino)pyrimidin-4-yl]phenyl}prop-2-enoate] | < 200
CNc1cc(-c2ccc(C(C)=O)cc2)nc(N)n1 [Example 109, 1-(4-(2-Amino-6-(methylamino)pyrimidin-4-yl)phenyl)ethanone] | < 200
Cc1cccc(-c2cc(NC3CC3)nc(N)n2)c1C [Example 114, 4-N-cyclopropyl-6-(2,3-dimethylphenyl)pyrimidine-2,4-diamine] | < 200
CNc1cc(-c2c[nH]c3ccccc23)nc(N)n1 [Example 116, 6-(1H-indol-3-yl)-4-N-methylpyrimidine-2,4-diamine] | < 200

Continued, values first:

IC50 [nM] | SMILES
< 200 | Nc1nc(NC2CCCCC2)cc(-c2ccccc2)n1 [Example 1, 4-N-cyclohexyl-6-phenylpyrimidine-2,4-diamine]
< 200 | CCNc1cc(-c2ccccc2)nc(N)n1 [Example 2, 4-N-ethyl-6-phenylpyrimidine-2,4-diamine]
< 200 | Nc1nc(NC2CCOCC2)cc(-c2ccccc2)n1 [Example 7, 4-N-(oxan-4-yl)-6-phenylpyrimidine-2,4-diamine]
< 200 | Nc1nc(NC2CC2)cc(-c2ccc(Cl)cc2)n1 [Example 13, 6-(4-chlorophenyl)-4-N-cyclopropylpyrimidine-2,4-diamine]
< 200 | Nc1nc(NC2CC2)cc(-c2cccc(C(F)(F)F)c2)n1 [Example 16, 4-N-cyclopropyl-6-[3-(trifluoromethyl)phenyl]pyrimidine-2,4-diamine]
< 200 | Nc1nc(NC2CC2)cc(-c2cccc(Cl)c2)n1 [Example 19, 6-(3-chlorophenyl)-4-N-cyclopropylpyrimidine-2,4-diamine]
< 200 | CNc1cc(-c2cn(S(=O)(=O)c3ccc(C)cc3)c3ccccc23)nc(N)n1 [Example 23, 4-N-methyl-6-[1-(4-methylbenzenesulfonyl)-1H-indol-3-yl]pyrimidine-2,4-diamine]
< 200 | CNc1cc(-c2cn(S(=O)(=O)c3ccccc3)c3ccccc23)nc(N)n1 [Example 26, 6-[1-(benzenesulfonyl)-1H-indol-3-yl]-4-N-methylpyrimidine-2,4-diamine]
< 200 | Cc1ccc(S(=O)(=O)n2cc(-c3cc(NC4CC4)nc(N)n3)c3ccccc32)cc1 [Example 27, 4-N-cyclopropyl-6-[1-(4-methylbenzenesulfonyl)-1H-indol-3-yl]pyrimidine-2,4-diamine]
< 200 | Nc1nc(NC2CC2)cc(-c2cn(S(=O)(=O)c3ccccc3)c3ccccc23)n1 [Example 28, 6-[1-(benzenesulfonyl)-1H-indol-3-yl]-4-N-cyclopropylpyrimidine-2,4-diamine]
< 200 | CNc1cc(-c2cn(S(=O)(=O)c3ccccc3)c3ncccc23)nc(N)n1 [Example 29, 6-[1-(benzenesulfonyl)-1H-pyrrolo[2,3-b]pyridin-3-yl]-4-N-methylpyrimidine-2,4-diamine]
< 200 | CNc1cc(-c2cccc3c2ccn3S(=O)(=O)c2ccccc2)nc(N)n1 [Example 30, 6-[1-(benzenesulfonyl)-1H-indol-4-yl]-4-N-methylpyrimidine-2,4-diamine]
< 200 | CNc1cc(-c2ccc(OC)cc2)nc(N)n1 [Example 33, 6-(4-methoxyphenyl)-4-N-methylpyrimidine-2,4-diamine]
< 200 | CNc1cc(-c2cc(C(F)(F)F)cc(C(F)(F)F)c2)nc(N)n1 [Example 34, 6-[3,5-bis(trifluoromethyl)phenyl]-4-N-methylpyrimidine-2,4-diamine]
< 200 | CNc1cc(-c2cccc(C(F)(F)F)c2)nc(N)n1 [Example 37, 4-N-methyl-6-[3-(trifluoromethyl)phenyl]pyrimidine-2,4-diamine]
< 200 | CNc1cc(-c2ccc3c(c2)OCO3)nc(N)n1 [Example 39, 6-(2H-1,3-benzodioxol-5-yl)-4-N-methylpyrimidine-2,4-diamine]
< 200 | CNc1cc(-c2cccc(NC(C)=O)c2)nc(N)n1 [Example 41, N-{3-[2-amino-6-(methylamino)pyrimidin-4-yl]phenyl}acetamide]
< 200 | CNc1cc(-c2ccc(NC(C)=O)cc2)nc(N)n1 [Example 47, N-{4-[2-amino-6-(methylamino)pyrimidin-4-yl]phenyl}acetamide]
< 200 | CNc1cc(-c2ccc(OC)nc2)nc(N)n1 [Example 49, 6-(6-methoxypyridin-3-yl)-4-N-methylpyrimidine-2,4-diamine.]
< 200 | CNc1cc(-c2ccc(-c3ccccc3)cc2F)nc(N)n1 [Example 50, 6-(2-fluoro-4-phenylphenyl)-4-N-methylpyrimidine-2,4-diamine.]
< 200 | C=CCNc1cc(-c2ccc(Cl)cc2)nc(N)n1 [Example 53, 6-(4-chlorophenyl)-4-N-(prop-2-en-1-yl)pyrimidine-2,4-diamine]
< 200 | Nc1nc(NC2CCC2)cc(-c2ccc(Cl)cc2)n1 [Example 58, 6-(4-chlorophenyl)-4-N-cyclobutylpyrimidine-2,4-diamine]
< 200 | CCCCCNc1cc(-c2cccc(Cl)c2Cl)nc(N)n1 [Example 61, 6-(2,3-dichlorophenyl)-4-N-pentylpyrimidine-2,4-diamine]
< 200 | CC(C)(C)Nc1cc(-c2cccc(Cl)c2Cl)nc(N)n1 [Example 63, 4-N-tert-butyl-6-(2,3-dichlorophenyl)pyrimidine-2,4-diamine]
< 200 | CNc1cc(-c2ccc(Cl)c(Cl)c2)nc(N)n1 [Example 68, 6-(3,4-dichlorophenyl)-4-N-methylpyrimidine-2,4-diamine]
